Measured values published in patent publication US7098206B2, “Pharmaceutically active morpholinol” (SmithKline Beecham Corporation, priority 1998, dated 2006).
Like-named read-outs stand apart in the source and are kept apart here.

Legend:
[1] = Dose-ranging safety study: serious adverse events (seizures and deaths); format: in vivo; conditions: for seizures observed, in words: 100 mg/kg p.o.
Description: Additional dose-ranging studies were performed to determine the range of safe doses for the isomers and the racemate. […]

[2] = test system: sexual behaviour of male mice; experiment: Mouse sexual behaviour model; format: in vivo, mice (C57BL/6 inbred strain); conditions: hydrochloride salt
Description: Male (10 weeks old) and female (8 weeks old) mice (C57BL/6 inbred strain, Charles River, Como (Italy) that had no reproductive or copulatory experience were used in the study. Females were brought into behavioral oestrus with s.c. injections of 0.03 mg estradiol benzoate approximately 48 hr before testing and 0.1 mg progesterone, in sesame oil, 4 hr before testing.
The compound of formula (I) (as its hydrochloride salt) was dissolved in saline to provide a solution for intraperitoneal injection at a dose of 3 mg/kg, with a dose volume of 10 ml/kg. Dosing was performed one hour prior to the test.
Tests were conducted in Perspex arenas, 30 cm in diameter and 50 cm high, which were placed in the cage in which males had been placed individually one day prior to test. The sexual behaviour was filmed remotely under red light for 30 min using a video camera and recorder, the test starting immediately after placing a female mouse into the male's cage. Behavior parameters recorded were (i) the extent of male/female interaction, (ii) the extent of genital sniffing, and (iii) the mount frequency (the number of male mounts).

[3] = target: T1, serotonin uptake, synaptosomes from rat hypothalamus (Rattus norvegicus, UniProt P31652); experiment: biochemical
Description: (§2) In vitro uptake was determined, as reported previously, using synaptosomes prepared from rat caudoputamen (for dopamine uptake) and hypothalamus (for NA and serotonin uptake) using [^3H]-dopamine, [^3H]-NA and [^3H]-serotonin as transport substrates, respectively.
(§3) Synaptosomes for use in obtaining in vitro uptake data were prepared from hypothalamus or striatum by gently homogenizing the tissue in a 0.3 M sucrose/25 mM Tris pH 7.4 buffer containing iproniazid phosphate to inhibit monoamine oxidase. The homogenate was centrifuged at 1100×g at 4° C. for 10 min and the supernatant was used for uptake studies. […] Under these conditions uptake was linear with respect to both for substrate and tissue (with <5% total substrate transported). Non-specific uptake was defined as uptake at 0° C. [^3H]-substrate, which had been transported into synaptosomes, was separated from free [^3H]-substrate by filtration over GF/B filters and washing with cold Krebs-Henseleit buffer. The filters were counted for tritum in a liquid scintillation spectrometer.

[4] = test system: MPTP-induced Parkinsonian marmosets; experiment: MPTP-treatment Parkinson's disease model; format: in vivo; conditions: hydrochloride salt, once weekly by oral gavage, MPTP-treated marmosets
Description: Locomotor deficits and motor disability were induced in marmosets by the administration of MPTP 2 mg/kg sc on five consecutive days. After the acute effects of MPTP administration had been overcome, bradykinesia, rigidity and loss of vocalisation remained. The compound of formula (I) (as its hydrochloride salt) was administered once weekly by oral gavage, freshly dissolved in 10% sucrose solution with dosages calculated as the free base. […] Assessment of motor disablities was by an observer through a one-way mirror: alertness, checking movements, posture, balance/co-ordination, reaction, vocalisation and motility were each scored. A score of zero indicated a “normally” behaing animal, while a maximum total score of 18 in the monitoring period indicated a severely disabled animal.

[5] = target: T1, serotonin uptake, synaptosomes from rat hypothalamus; conditions: at 30 mM (so in the source)
Description: as §2, §3

[6] = target: T2, dopamine uptake, synaptosomes from rat caudoputamen (Rattus norvegicus, UniProt P23977); experiment: In vitro synaptosomal [3H]-dopamine uptake; format: biochemical; conditions: for IC50: rat caudoputamen synaptosomes
T2 construct: Synaptosomes for use in obtaining in vitro uptake data were prepared from hypothalamus or striatum by gently homogenizing the tissue; from tissue; host or cells: rat caudoputamen (striatum) synaptosomes
From the text: (§1) Similarities and differences. Molecular Pharmacology, 21: p.

[7] = target: T3, noradrenaline (NA) uptake, synaptosomes from rat hypothalamus (Rattus norvegicus, UniProt Q63380); experiment: In vitro synaptosomal [3H]-noradrenaline uptake; format: biochemical; conditions: for IC50: rat hypothalamus synaptosomes
T3 construct: Synaptosomes for use in obtaining in vitro uptake data were prepared from hypothalamus or striatum by gently homogenizing the tissue; from tissue; host or cells: rat hypothalamus synaptosomes
From the text: as §1

[8] = test system: TBZ-induced behavioural depression; experiment: Tetrabenazine-induced behavioural depression; format: in vivo, Male, CD-1 Mice; conditions: for effect on tetrabenazine-induced behavioural depression: 25 mg/kg (ip), FIG. 1; for dose-effect against TBZ-induced depression: 30 minutes prior to TBZ, n=6, FIGS. 2 and 3
Description: FIG. 2. Dose Response of Compound of Formula I Against TBZ-Induced Depression (Compounds administered 30 minutes prior to TBZ, Male, CD-1 Mice, i.p., n=6).
FIG. 3. Dose Response of Compound of Formula II Against TBZ-Induced Depression (Compounds administered 30 minutes prior to TBZ, Male, CD-1 Mice, i.p., n=6).
Tetrabenazine(TBZ)-induced behavioural depression was used as an in vivo measure of antidepressant activity. The test has been validated with a wide range of antidepressants, known to act through noradrenergic mechanisms (Cooper B. R. et al, “Animal models used in the prediction of antidepressant effects in man”, J. Clin. Psychiatry 44: 63–66, 1983). Moreover, the test was also used to identify Wellbutrin® as an anti-depressant. Briefly, animals were injected with the candidate agent (p.o. or i.p.) 30 minutes before receiving an i.p. injection of tetrabenazine (35 mg/kg, as the HCl salt—prepared fresh for each use). Assessments were performed 30 minutes thereafter and included: locomotor activity (1–4 scale); ptosis (1–4 scale) and body temperature as described previously (Cooper, B. R., J. L. Howard, and F. E. Soroko, Animal models used in prediction of antidepressant effects in man (Journal of Clinical Psychiatry, 44: p. 63–6, 1983). In all studies, the scientist performing the assessments was blind to the treatments. All parameters were weighted equally to give a “lumped” score (X) through the following algorithm: X=(1+Ptosis score)/(Activity score*[Temp,treated/Temp,control]

[9] = test system: CCI-induced decrease in mechanical paw withdrawal threshold; experiment: Chronic constriction injury model of mononeuropathy; format: in vivo, male Random Hooded rats; conditions: CCI rats, FIG. 6
From the text: Mononeuropathy was reproduced in male Random Hooded rats (180–250 g) using the Chronic Constriction Injury (CCI) model as described by Bennett and Xie (1988). Under Isoflurane anaesthesia, the common left sciatic nerve of the rats was exposed at mid thigh level. Four ligatures of Chromic gut (4.0) were tied loosely around the nerve with a 1 mm spacing between each. The wound was then closed and secured with suture staples. The surgical procedure was identical for the sham operated animals except the sciatic nerve was not ligated. The animals were allowed a period of 12 days to recover from the surgery before any behavioural testing began.
The effect of the compound of formula (I) (administered as the hydrochloride salt at 20 mgkg^−1 t.i.d. p.o. chronically for a period of 7 days) on CCI-induced decrease in mechanical paw withdrawal threshold was measured using an algesymeter (Randall & Selitto, 1957).

[10] = 3 mg/kg intraperitoneal, one hour prior to 30 min test
[11] = intraperitoneal injection, versus control
[12] = read-out: IC50, [3H]-Dopamine Uptake

T2 sequence (P23977 whole entry): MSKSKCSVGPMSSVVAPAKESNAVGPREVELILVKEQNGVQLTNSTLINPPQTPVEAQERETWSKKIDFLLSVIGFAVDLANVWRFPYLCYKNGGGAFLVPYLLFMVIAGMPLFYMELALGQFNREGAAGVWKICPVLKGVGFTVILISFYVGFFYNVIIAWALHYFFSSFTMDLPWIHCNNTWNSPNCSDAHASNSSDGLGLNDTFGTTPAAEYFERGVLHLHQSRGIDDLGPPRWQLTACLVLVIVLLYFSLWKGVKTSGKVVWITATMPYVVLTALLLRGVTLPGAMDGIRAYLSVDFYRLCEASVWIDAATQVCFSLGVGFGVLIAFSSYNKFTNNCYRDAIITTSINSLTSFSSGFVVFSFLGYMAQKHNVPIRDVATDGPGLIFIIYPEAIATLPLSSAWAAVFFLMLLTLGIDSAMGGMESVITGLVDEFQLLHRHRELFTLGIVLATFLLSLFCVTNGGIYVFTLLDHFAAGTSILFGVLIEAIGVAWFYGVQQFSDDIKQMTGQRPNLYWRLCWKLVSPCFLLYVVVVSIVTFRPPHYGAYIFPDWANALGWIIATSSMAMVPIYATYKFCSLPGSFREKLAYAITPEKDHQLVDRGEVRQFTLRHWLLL
T3 sequence (Q63380 1-617): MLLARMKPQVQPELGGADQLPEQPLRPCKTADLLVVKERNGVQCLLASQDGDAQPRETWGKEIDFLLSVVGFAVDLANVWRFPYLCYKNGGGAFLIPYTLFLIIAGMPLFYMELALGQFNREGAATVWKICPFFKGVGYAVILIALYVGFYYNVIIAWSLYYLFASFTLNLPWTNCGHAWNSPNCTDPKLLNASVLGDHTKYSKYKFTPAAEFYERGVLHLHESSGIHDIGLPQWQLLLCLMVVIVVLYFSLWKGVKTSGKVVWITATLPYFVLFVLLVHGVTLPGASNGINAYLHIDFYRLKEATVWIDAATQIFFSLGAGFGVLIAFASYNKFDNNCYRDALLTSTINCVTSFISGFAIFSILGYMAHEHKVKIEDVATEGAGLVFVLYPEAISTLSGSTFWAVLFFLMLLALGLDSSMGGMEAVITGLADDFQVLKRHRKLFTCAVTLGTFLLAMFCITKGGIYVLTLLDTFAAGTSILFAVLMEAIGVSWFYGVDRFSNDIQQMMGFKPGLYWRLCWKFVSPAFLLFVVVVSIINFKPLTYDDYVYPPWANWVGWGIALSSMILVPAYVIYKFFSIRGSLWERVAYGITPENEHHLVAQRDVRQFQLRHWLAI
T1 sequence (P31652 whole entry): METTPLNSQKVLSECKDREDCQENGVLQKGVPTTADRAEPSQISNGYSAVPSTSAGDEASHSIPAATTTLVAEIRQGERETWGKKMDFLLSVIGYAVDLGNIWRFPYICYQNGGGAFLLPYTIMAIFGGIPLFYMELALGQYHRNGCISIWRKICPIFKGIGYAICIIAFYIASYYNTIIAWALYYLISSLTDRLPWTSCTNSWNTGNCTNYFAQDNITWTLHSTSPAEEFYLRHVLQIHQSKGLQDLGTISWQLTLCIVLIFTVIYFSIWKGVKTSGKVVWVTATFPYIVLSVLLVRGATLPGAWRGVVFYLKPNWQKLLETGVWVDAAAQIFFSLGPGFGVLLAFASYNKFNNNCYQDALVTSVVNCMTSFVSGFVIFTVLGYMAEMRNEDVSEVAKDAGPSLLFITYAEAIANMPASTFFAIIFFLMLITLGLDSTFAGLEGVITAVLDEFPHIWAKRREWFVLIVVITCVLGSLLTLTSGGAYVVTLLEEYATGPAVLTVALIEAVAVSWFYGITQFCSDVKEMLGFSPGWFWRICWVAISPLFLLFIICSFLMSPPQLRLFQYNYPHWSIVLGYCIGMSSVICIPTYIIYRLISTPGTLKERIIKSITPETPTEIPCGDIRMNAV

Row | SMILES | seizures observed, in words [1] | % Died ([1]; i.p., 100 mg/kg) | Seizures (%) ([1]; i.p., 100 mg/kg) | Time to Death ([1]; i.p., 100 mg/kg) | Time to Seizures ([1]; i.p., 100 mg/kg) | % Died ([1]; i.p., 300 mg/kg) | Seizures (%) ([1]; i.p., 300 mg/kg) | Time to Death ([1]; i.p., 300 mg/kg) | Time to Seizures ([1]; i.p., 300 mg/kg) | % Died ([1]; p.o., 100 mg/kg) | Seizures (%) ([1]; p.o., 100 mg/kg) | Time to Seizures ([1]; p.o., 100 mg/kg) | % Died ([1]; p.o., 300 mg/kg) | Seizures (%) ([1]; p.o., 300 mg/kg) | Time to Death ([1]; p.o., 300 mg/kg) | Time to Seizures ([1]; p.o., 300 mg/kg) | IC50 [3] | inhibition of serotonin uptake at a fixed concentration [5] | IC50 [6, 12] | effect on tetrabenazine-induced behavioural depression [8] | other results
1 | CC1NC(C)(C)COC1(O)c1cccc(Cl)c1.Cl (racemic) [Racemate, (+/−)-(2R*,3R*)-2-(3-chlorophenyl)-3,5,5-trimethyl-2-morpholinol] | seizures were observed | 20% | 100% | 14 min | 3 min | 100% | 100% | 3 min | 3 min | 0% | 100% | 9.2 min | 80% | 100% | 7 min | 6.8 min |  |  |  |  | 
2 | C[C@@H]1NC(C)(C)CO[C@@]1(O)c1cccc(Cl)c1 (single isomer, unassigned) [Formula (I)] |  | 0% | 100% |  | 3.93 min | 100% | 100% | 6 min | 3.95 min | 0% | 0% |  | 0% | 100% |  | 11.23 min | > 30 µM | Neither compound inhibited serotonin uptake | 9.3 µM | abolished the tetrabenazine-induced behavioural depression | M/F interaction [2, 10]: *228.8 ± 30.3 sec; Mount frequency, No. of events ± SEM [2, 10]: 6.6 ± 1.7; Time spent in genital sniffing [2, 10]: *203.6 ± 30.1 sec; genital sniffing, change in words [2, 11]: statistically significant (unpaired t-test) increase; male/female interaction, change in words [2, 11]: statistically significant (unpaired t-test) increase; mount frequency, change in words [2, 11]: trend towards increasing mount frequency; locomotor deficits ([4]; FIG. 4): reversed the locomotor deficits; motor disability ([4]; FIG. 5): reversed; IC50 ([6]; IC50, [3H]-Dopamine Uptake): ~10 µM; potency as inhibitor of dopamine uptake, fold less potent ([6]; unlike Wellbutrin, comparison as worded): approximately 10 fold; % Died ([1]; i.p., 100 mg/kg, listed as compound of formula I): No deaths were observed; % Died ([1]; p.o., 300 mg/kg, listed as compound of formula I): no deaths were observed; potency as NA inhibitor relative to Wellbutrin ([7]; versus Wellbutrin): approximately twice as potent; dose-effect against TBZ-induced depression ([8]; i.p.): sharp increase in activity between 3 mg/kg and 6 mg/kg; mechanical paw withdrawal threshold on cessation of treatment ([9]; after 20 mgkg−1 t.i.d. p.o. for 7 days): falling back towards CCI-operated vehicle-treated levels; mechanical paw withdrawal threshold during chronic dosing ([9]; hydrochloride salt, 20 mgkg−1 t.i.d. p.o. for 7 days): reversal was maintained throughout the chronic dosing period; mechanical paw withdrawal threshold after a single dose ([9]; hydrochloride salt, single dose 20 mgkg−1 p.o.): immediate reversal of the fall in paw withdrawal threshold back towards sham operated levels
3 | CN(C)CCC=C1c2ccccc2CCc2ccccc21 [amitryptyline] |  |  |  |  |  |  |  |  |  |  |  |  |  |  |  |  |  |  |  | abolished the tetrabenazine-induced behavioural depression | 
4 | C[C@H]1NC(C)(C)CO[C@]1(O)c1cccc(Cl)c1 (single isomer, unassigned) [Formula (II)] | seizures were observed | 100% | 20% | 7 min | 5 min | 100% | 100% | 6 min | 1.1 min | 0% | 100% | 7.2 min | 100% | 100% | 7 min | 6.8 min | > 100 µM | Neither compound inhibited serotonin uptake | > 100 µM | only modest activity | inhibition of dopamine (DA) uptake at a fixed concentration ([6]; at 30 μM): inactive; inhibition of noradrenaline (NA) uptake at a fixed concentration ([7]; at a concentration of 30 μM): ineffective; IC50 [7]: > 30 µM; effect on TBZ-induced depression at the top dose ([8]; 50 mg/kg, i.p., FIG. 3): appeared to worsen the animal's condition; dose-effect against TBZ-induced depression ([8]; i.p.): did not possess dose-related activity
5 | CC1NC(C)(C)COC1(O)c1cccc(Cl)c1 (stereo not drawn) [Racemate, (+/−)-(2R*,3R*)-2-(3-chlorophenyl)-3,5,5-trimethyl-2-morpholinol] |  |  |  |  |  |  |  |  |  |  |  |  |  |  |  |  |  |  |  | abolished the tetrabenazine-induced behavioural depression | 
6 | CC(NC(C)(C)C)C(=O)c1cccc(Cl)c1.Cl (racemic) [Bupropion, (±)-1-(3-chlorophenyl)-2-[(1,1-dimethylethyl)amino]-1-propanone hydrochloride] |  |  |  |  |  |  |  |  |  |  |  |  |  |  |  |  |  |  | 1.9 µM | abolished the tetrabenazine-induced behavioural depression | IC50 [7]: 2.2 µM
